Test results published in PubChem BioAssay (NCI).
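Tested at 5 concentrations; 48 h exposure; 96-well plates; endpoints linearly interpolated, else capped at highest concentration. TGI is the concentration that stops growth completely.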

How the values were obtained:
Test in all cases: NCI tumour cell line growth inhibition, 48 h
[1] = tested on: EKVX NSCLC
[2] = tested on: IGROV1 ovarian
[3] = tested on: MDA-MB-435
[4] = tested on: OVCAR-8 ovarian
[5] = tested on: SF-268 CNS
[6] = tested on: SF-295 CNS
[7] = tested on: SK-MEL-5 melanoma
[8] = tested on: UACC-257 melanoma
[9] = tested on: UO-31 renal
[10] = tested on: CCRF-CEM leukemia

SMILES	TGI [1] [µM]	TGI [2] [µM]	TGI [3] [µM]	TGI [4] [µM]	TGI [5] [µM]	TGI [6] [µM]	TGI [7] [µM]	TGI [8] [µM]	TGI [9] [µM]	TGI [10] [µM]
COC(=O)C1=C(O)C(C(=O)OC)[C@]2(O)[C@H](C(=O)OC)[C@H]1C[C@@H](c1c(Cl)cccc1Cl)[C@H]2C(=O)OC (some centres not stated)	18.4	5.99	3.3	3.66	12.9	7.57	3.02	6.08	3.01	
Fc1ccc2nc3n(c2c1)C(c1c(Cl)cccc1Cl)SC3 (configuration not stated)		> 100	> 100	> 100	> 100	> 100	> 100	> 100	> 100	
O=c1oc2cc(O)ccc2c(O)c1C(c1cccnc1)c1c(O)c2ccc(O)cc2oc1=O	> 100	> 100	> 100	> 100	> 100	> 100	> 100	> 100	> 100	
O=C(/C=C/c1ccc(O)c(O)c1)c1cc(O)cc(O)c1	57.4	27.5	20.3	32.8	42.8	40.1	> 100	23	22.6	
CCN1CCN(c2nc3ccc([N+](=O)[O-])cc3nc2C(=O)c2ccccc2)CC1	29.6	18.9	30.2	30.5	38	30.3		36.7	25.2	8.27
Cc1ccc(OC2CC(n3cnc4ncnc(Cl)c43)OC2Oc2ccc(C)cc2)cc1 (configuration not stated)	> 100	55	> 100	26.8	50.1	56.7	46.4	> 100	23.9	
N#C/C(=C\NC(=S)c1ccncc1)c1nc2ccccc2s1	> 100	> 100	> 100	> 100	> 100	> 100	> 100	> 100	> 100	
CCOc1ccc(/C=N/[N+](C)(C)C)cc1OCC		> 10	> 10	> 10	> 10	> 10	> 10	> 10		> 10
Cc1cccnc1/N=C/c1c(O)n(C)c(=O)[nH]c1=O	> 100	> 100	> 100	> 100	> 100	> 100	> 100	> 100	> 100	
CCCCCCCCCCCCOP(=O)(O)OCC(N)C(=O)O (configuration not stated)	> 100	> 100	36.8	> 100	> 100	41.7	61.7	> 100	28.9	
CC(=O)OC(CCC1(C)OC1COc1ccc(CCNC(=O)c2ccccc2)cc1)C(C)(C)OC(C)=O (configuration not stated)		> 100		41.4	> 100	> 100	17.4	25.8	> 100	> 100
N#C/C(=C\c1cc(Cl)cc(Cl)c1)c1ccccn1	60	> 100		> 100	> 100	> 100	> 100	> 100	> 100	> 100
CC1OC(O[C@H]2C3C=CO[C@@H](OC4OC(CO)C(O)C(O)C4O)C3[C@@]3(COC(=O)/C=C/c4ccc(O)cc4)O[C@@H]23)C(O)C(O)C1O (some centres not stated)	> 100	> 100	> 100	> 100	> 100	> 100	> 100	> 100	> 100	
Cn1c(-c2ccccc2)cc2c3ccsc3c3ccsc3c21		> 100	> 100	> 100	> 100	> 100	> 100	> 100	> 100	
O=c1[nH]c(=O)n(C2CC(O)C(CO)O2)cc1C1=NC1 (configuration not stated)	> 100	> 100	> 100	> 100	> 100	> 100	> 100	> 100	> 100	
Nc1[nH]c(=S)nc2snnc12		> 100	> 100	> 100	> 100	> 100	> 100	> 100	> 100	> 100
O=C(CCCCCCC(=O)Nc1cccnc1)NO	> 100	> 68.9	> 42.6	> 57.5	> 61	> 100		87.7	> 100	> 100
CCOC(=O)Cc1nc2sc(S(N)(=O)=O)nn2c1Br	79.4	90.8	> 100	47.7	> 100	> 100	42.4	> 100	29.4	
O=C1CCC(=O)N1n1c(Cc2ccc(Cl)cc2)n[nH]c1=O	> 100	> 100	> 100	> 100	> 100	> 100	> 100	> 100	> 100	
